Experiments:
Assay type in all cases: in vivo
Details in all cases: 50 ppm, 100 = 100% disease control, 0 = no control
Alternaria solani = experiment: Test F: tomato early blight, preventive spray on tomato seedlings
Procedure, shortened: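 Preventive test: one day after the compound spray, seedlings were inoculated with A. solani, incubated saturated at 27 °C for 48 h, then kept at 20 °C for 3 days. Test suspensions contained acetone/water 50/50 with 250 ppm PEG400 surfactant. Visual ratings run from 0 (no control) to 100 (full control).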

Phakopsora pachyrhizi = experiment: Test D: Asian soybean rust, preventive spray on soybean seedlings
Procedure, shortened: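 Compounds in acetone/water (50/50) with 250 ppm PEG400, dosed in ppm, sprayed to run-off on soybean seedlings; inoculated with P. pachyrhizi spores next day. Held 24 h at 22 °C in saturated air, then 8 days at 22 °C; visual rating of disease control, 0–100, relative to untreated controls.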

Botrytis cinerea = experiment: Test E: tomato Botrytis, preventive spray on tomato seedlings
Procedure, shortened: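 Preventive test: seedlings sprayed to run-off with compound in acetone/water (50/50) plus 250 ppm PEG400, inoculated one day later with B. cinerea spores. Held 48 h saturated at 20° C, then 3 days at 24° C; disease control scored visually from 0 to 100 versus controls.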

[1] = tested on: Puccinia recondita f. sp. tritici; experiment: Test B: wheat leaf rust, preventive spray on wheat seedlings
Procedure, shortened: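 Preventive test: compound in acetone/water 50/50 with 250 ppm PEG400 was sprayed onto wheat seedlings one day before inoculation with leaf rust spores. After 24 h in saturated air and 7 days in a growth chamber, both at 20 °C, disease control was scored from 0 to 100 against controls.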

[2] = tested on: Blumeria graminis f. sp. tritici; experiment: Test C: wheat powdery mildew, preventive spray on wheat seedlings
Text: General protocol for preparing test suspensions for Tests A-F: the test compounds were first dissolved in acetone in an amount equal to 3% of the final volume and then suspended at the desired concentration (in ppm) in acetone and purified water (50/50 mix by volume) containing 250 ppm of the surfactant PEG400 (polyhydric alcohol esters). The resulting test suspensions were then used in Tests A-F.
The test suspension was sprayed to the point of run-off on wheat seedlings. The following day the seedlings were inoculated with a spore dust of Blumeria graminis f. sp. tritici, (also known as Erysiphe graminis f. sp. tritici, the causal agent of wheat powdery mildew) and incubated in a growth chamber at 20° C. for 8 days, after which time visual disease ratings were made.
A rating of 100 indicates 100% disease control and a rating of 0 indicates no disease control (relative to the controls). A dash (−) indicates the compound was not tested.

Septoria tritici = experiment: Test A: wheat leaf blotch, preventive spray on wheat seedlings
Procedure, shortened: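 Preventive test: one day after spraying seedlings to run-off (concentrations in ppm; acetone/water, 250 ppm PEG400), Septoria tritici spores applied. Scored after 48 h humid incubation at 24 °C plus 17 days at 20 °C, as percent disease control versus untreated controls (100 = full control).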

SMILES | Test F disease control rating (Alternaria solani) [%] | Test D disease control rating (Phakopsora pachyrhizi) [%] | Test E disease control rating (Botrytis cinerea) [%] | Test B disease control rating [1] [%] | Test C disease control rating [2] [%] | Test A disease control rating (Septoria tritici) [%]
Cc1cccc([N+](=O)[O-])c1Nc1c(-c2ccc(C#N)cc2Cl)c(C)nn1C [compound 157] | 0 | 0 | 9 | 97 | 76 | 100
COc1ccc(-c2c(C)nn(C)c2Nc2c(F)cc(Br)cc2[N+](=O)[O-])c(Cl)c1 [compound 182] | 99 | 0 | 100 | 99 | 76 | 100
Cc1nn(C)c(Nc2c(Cl)cccc2[N+](=O)[O-])c1-c1c(F)cc(F)cc1Br [compound 163] | 76 | 78 | 88 | 100 | 98 | 99
Cc1nn(C)c(Nc2ccccc2[N+](=O)[O-])c1-c1c(F)cccc1F [compound 135] | 0 | 0 | 99 | 68 | 93 | 100
Cc1nn(C)c(Nc2c(Cl)cc(F)cc2[N+](=O)[O-])c1-c1c(F)cccc1Cl [compound 49] | 26 | 25 | 94 | 100 | 95 | 100
COc1ccc(-c2c(C)nn(C)c2Nc2c(Cl)cc(C)cc2[N+](=O)[O-])c(Cl)c1 [compound 66] | 96 | 97 | 98 | 100 | 98 | 100
Cc1nn(C)c(Nc2c(F)cccc2[N+](=O)[O-])c1-c1ccc(Cl)cc1F [compound 12] | 53 | 0 | 97 | 99 | 81 | 100
COc1cc(F)c(-c2c(C)nn(C)c2Nc2c(C)cccc2[N+](=O)[O-])c(F)c1 [compound 162] | 98 | 77 | 97 | 100 | 99 | 100
Cc1cc(Cl)c(Nc2c(-c3ccc(C#N)cc3Cl)c(C)nn2C)c([N+](=O)[O-])c1 [compound 156] | 0 | 0 | 0 | 91 | 66 | 91
Cc1nn(C)c(Nc2c(F)cc(F)cc2[N+](=O)[O-])c1-c1ccc(F)cc1Cl [compound 109] | 99 | 93 | 100 | 100 | 100 | 100
COc1cc(F)c(-c2c(C)nn(C)c2Nc2c(F)cc(Cl)cc2[N+](=O)[O-])c(F)c1 [compound 86] | 99 | 77 | 96 | 100 | 98 | 100
CCc1nn(C)c(Nc2ccc(C)cc2[N+](=O)[O-])c1-c1ccc(F)cc1F [compound 175] | 0 | 0 | 88 | 86 | 79 | 100
Cc1nn(C)c(Nc2c(F)cc(Br)cc2[N+](=O)[O-])c1-c1ccc(F)cc1Br [compound 191] | 100 | 13 | 100 | 100 | 99 | 100
CCc1nn(C)c(Nc2ccc(C)cc2[N+](=O)[O-])c1-c1ccc(F)cc1Cl [compound 174] | 39 | 0 | 99 | 95 | 92 | 100
Cc1nn(C)c(Nc2ccc(OCC#N)cc2[N+](=O)[O-])c1-c1ccc(F)cc1Cl [compound 29] | 26 | 81 | 99 | 98 | 87 | 97
Cc1cc(F)c(Nc2c(-c3c(F)cc(C#N)cc3F)c(C)nn2C)c([N+](=O)[O-])c1 [compound 200] | 100 | 100 | 98 | 100 | 99 | 99
COc1cc(F)c(Nc2c(-c3c(F)cccc3F)c(C)nn2C)c([N+](=O)[O-])c1 [compound 97] | 99 | 96 | 100 | 100 | 100 | 100
Cc1nn(C)c(Nc2c(Cl)cc(F)cc2[N+](=O)[O-])c1-c1c(F)cccc1F [compound 76] | 0 | 25 | 87 | 99 | 95 | 100
COc1cc(F)c(Nc2c(-c3ccc(C#N)cc3Cl)c(C)nn2C)c([N+](=O)[O-])c1 [compound 166] | 100 | 98 | 99 | 100 | 98 | 99
Cc1nn(C)c(Nc2ccc(OC(C)C)cc2[N+](=O)[O-])c1-c1ccc(F)cc1Cl [compound 104] | 0 | 0 | 0 | 0 | 72 | 60
Cc1nn(C)c(Nc2c(Cl)cc(F)cc2[N+](=O)[O-])c1-c1ccc(Cl)cc1F [compound 176] | 0 | 0 | 9 | 97 | 0 | 100
Cc1nn(C)c(Nc2cc(F)c(F)cc2[N+](=O)[O-])c1-c1ccc(F)cc1Cl [compound 32] | 0 | 98 | 99 | 85 | 56 | 93
Cc1nn(C)c(Nc2c(Cl)cc(F)cc2[N+](=O)[O-])c1-c1ccc(F)cc1F [compound 67] | 33 | 69 | 98 | 100 | 89 | 100
Cc1nn(C)c(Nc2ccc(Cl)cc2[N+](=O)[O-])c1-c1c(F)cccc1Cl [compound 22] | 64 | 0 | 99 | 93 | 97 | 100
COc1cc(F)c(-c2c(C)nn(C)c2Nc2ccc(F)cc2[N+](=O)[O-])c(F)c1 [compound 83] | 99 | 0 | 98 | 91 | 99 | 99
